In US20220357313A1, “DRUG FINGERPRINTING” (Q-STATE BIOSCIENCES, INC., priority 2021, published 2022):
Where a name gives a salt, the structure may show the parent alone.

How the values were obtained:
[1] = test system: iPSC-derived excitatory cortical neurons (NGN2) with loss of function knockout (KO); experiment: Optopatch action potential features in knockout disease-model iPSC-derived cortical neurons; assay type: cell-based, human; conditions: for cell behavior projected onto the phenotype/side effect space: KO cells, 8 concentrations from 0.28 to 600 μM, two replicates; for reversal of functional phenotype of disease-model cells (radar plots of action potential features): KO disease-model cells, features normalized to control cells
Protocol: In this example, iPSC-derived excitatory cortical neurons (NGN2) were grown for 30 days in a culture. The neurons expressed Optopatch proteins as described in Example 1. Two sets of neurons were grown. The first was a wildtype control line. […] The cells were stimulated using blue light as described in Example 1 and their action potentials recorded as voltage traces. Recordings were made of the control cells and disease-model cells when stimulated in the absence of any test compound. Recordings were also made of the disease-model cells when stimulated in the presence of the promiscuous potassium channel blocker 4-AP and the promiscuous sodium channel blocker lamotrigine.
FIG. 19 provides radar plots showing action potential features extracted from the recorded action potential features when stimulated by blue light. The values for the features are normalized to the control cell recordings. […] The differences in the recorded traces, select features of which are provided on the radar plots, show the functional phenotype of the disease-model in red.
FIG. 20 is a diagram illustrating phenotype reversal and “side effects” described by mapping extracted action potential features on the ˜300-dimensional space of recorded parameters, only two of which are shown. Extracted features for the control cell (WT) wells (green) are clustered as are those for the KO cells (red). The vector between these populations represents the phenotype (red). Drug effects (blue) are deconstructed into components along (phenotype reversal) and orthogonal to (side effects) the phenotype vector. An ideal drug would undo the effects of the mutation and move the well from the KO cluster to the control cell cluster.
FIG. 21 is a plot showing many wells projected onto the phenotype/side effect space. WT and KO wells are well separated along the phenotype direction. Application of the two compounds (8 concentrations from 0.28 to 600 μM) from FIG. 25 have increasing effects on KO cell behavior as the concentration increases. […] The connected drug points are in order of increasing concentration, and the two lines are experimental replicates on two consecutive weeks of experiment.

[2] = test system: KCNQ2 R201C gain-of-function mutant line; experiment: Drug fingerprint phenotype reversal in KCNQ2 R201C line; assay type: cell-based; conditions: several concentrations
Excerpt: (§1) An autoencoder reduces 518 features extracted from Optopatch measurements through an 8-dimensional bottleneck layer (the “embedding”) before attempting to expand back out and reconstruct the initial inputs. The embeddings are information-dense and (because of the preceding depth) reflect high-order representations. The autoencoder may implement a swish activation function between any layers (e.g., between the 518 and 50 dimensional layers, or between the 50 and 25 dimensional layers. Activation functions extend neural networks behavior to non-linear data. Thus the autoencoder is useful for deriving drug fingerprints with representation learning.
For example, the potassium voltage-gated channel subfamily Q member 2 (KCNQ2) protein and gene are implicated in KCNQ2 encephalopathy, which typically presents with seizures in the first week of life. It is understood that mutation of […] at position 201 in KCNQ2 (R201C) is a gain-of-function mutation that may give rise to KCNQ2 encephalopathy. Using methods of the invention, neurons with and without the R201C mutation may be measured with optopatch and a system such as an autoencoder may create a phenotype. Each phenotype may be plotted in the 8-dimensional space by the autoencoder, which may also plot a drug fingerprint. […]

[3] = test system: E18 rat hippocampal neurons; experiment: Optopatch spiking behavior of cultured rat hippocampal neurons with compounds; assay type: cell-based; conditions: for drug-induced changes in neuronal spiking behavior (radar plots): features normalized to control vehicle
Protocol: E18 rat hippocampal neurons were cultured for 14 days and caused to express Optopatch proteins as described in Example 1. The cells were stimulated in the presence of XE-991 (a Kv7.x blocker), ML-213 (a Kv7.x opener), α-Dendrotoxin (a Kv1.x blocker), OXO-M (a muscarinic agonist), 4AP (a promiscuous Kv blocker), Isradipine (a Cav1.x blocker), or a control vehicle.
FIG. 22 provides radar plots showing the drug-induced changes in neuronal spiking behavior along many dimensions, which are merely a subset of the action potential features extracted from recordings of the stimulated cells in the presence of one of the listed compounds. The action potential feature values were normalized to those for the cells simulated in the presence of the control vehicle. As shown in the radar plots, each compound provided a discernable and unique effect to the action potential features of the cell.
E18 rat hippocampal neurons were cultured for 14 days and caused to express Optopatch proteins as described in Example 1. The cells were placed in wells of a 96-well plate. ML-213 at 1 μM was added to alternating columns of the plate and a control vehicle added to the remaining columns. The cells in all wells were stimulated and their action potentials recorded using a microscope as described in Example 1.

[4] = test system: hiPSC-derived motor neurons; experiment: Optopatch excitability recording in hiPSC-derived motor neurons, before and after compound addition; assay type: cell-based, human; conditions: 1 μM ML213; same field of view recorded before and after addition; blue light stimulus
Excerpt: Human induced pluripotent stem cells (hiPSC) were differentiated into hiPSC-derived motor neurons. The cells expressed an optogenetic proteins from the Optopatch toolkit (optical stimulation plus optical voltage reporting, e.g., CheRiff & QuasAr), which allows simultaneous optical stimulation and recording of neuronal action potentials.
The channelrhodopsin CheRiff enables action potential stimulation with blue light and the voltage-sensitive fluorescent protein QuasAr enables high-speed electrical recordings with red light. A microscope, as disclosed herein, obtained simultaneous voltage recordings from >100 individual neurons over a large (0.5×4 mm) field of view (FOV) with 1 ms temporal resolution and high signal-to-noise ratio (SNR). A digital micromirror device (DMD) in the microscope projected a fully reconfigurable optical pattern to sequentially stimulate individual cells while recording from many post-synaptic partners. […]
In every voltage trace the spikes were detected and the key spike shape and timing parameters were computed. […]
Pixels in the recording that captured fluorescence from the reporters of membrane potential in each neuron co-varied in time following that cell's unique firing pattern. […] Each FOV was recorded twice, before and after addition of potassium channel opener ML213. […]

neurons [5] = experiment: Nearest neighbor matching of 8-dimensional drug fingerprints across the 400 compound library; assay type: cell-based; conditions: nearest neighbor query across the 400 compound library
Excerpt: as §1
Over 400 compounds have been assessed in 10-point concentration response curves (CRCs) in neuronal excitability assays.
In general, the highest concentrations of the compounds are associated with the largest deviation from control. The action potential traces of FIG. 48 are shown to the autoencoder of FIG. 45, which derives for each compound an 8-dimensional fingerprint such as the two (two replicates of one compound) shown in FIG. 46. […]
GSK 3787 is a potent and selective peroxisome proliferator-activated receptor δ (PPARδ) antagonist. […] Software may read hundreds (e.g., 512) of features of action potentials fluorescently shown in the movies. […]

neurons [6] = experiment: Drug fingerprint activity detector in the 400 compound screen; assay type: cell-based; conditions: Retigabine positive CTL wells
Excerpt: To address this challenge, the invention provides a neuronal fingerprinting-based activity detector. In embodiments, the method calculates the fingerprints for each sample, then determines which fingerprints lie inside the “cloud of inertness” defined by the high-n replication of control wells. Samples that give a very low probability of being inert are then labeled as active. This technique is enabled by two assets: 1) a fitted fingerprinting algorithm, such as is described above, with which to find fingerprints and 2) control samples to populate the “cloud of inertness” at the center of the fingerprint space. The determination of the probability of inertness can be made using several computationally inexpensive techniques, including multivariate gaussian distributions and nonparametric kernel density estimation.
FIG. 59 illustrates a drug fingerprint as an activity detector, which could be used for inertness identifier as well. […] Bioactivity of compounds across varying concentrations can be automatically detected in the trained drug space. […] Throughout the 400 compound screen, activity was detected for 99.8% of the Retigabine positive CTL wells and 25.1% of experimental wells (403 compounds across 10 concentrations). For compounds where activity was detected, activity was detected for 49.5% of the wells with the highest third of doses and for 61% of the highest doses. […]

SMILES | cell behavior projected onto the phenotype/side effect space [1] | reversal of functional phenotype of disease-model cells (radar plots of action potential features) [1] | drug-induced changes in neuronal spiking behavior (radar plots) [3] | other results
Nc1ccncc1 [4-AP] | moves cell behavior toward and beyond WT behavior | substantially reversed the phenotype | – | –
O=C1N(c2ccccc2)c2ccccc2C1(Cc1ccncc1)Cc1ccncc1 [Linopirdine hydrochloride] | – | – | – | reversal of KCNQ2 R201C gain-of-function phenotype in 8-dimensional drug fingerprint space [2]: reverses the disease phenotype
Cc1cc(C)c(NC(=O)C2CC3CCC2C3)c(C)c1 (centres unmarked) [ML213] | – | – | drove cellular response, as expected | average firing rate during the blue light stimulus ramp ([3]; ML-213 at 1 μM versus vehicle, 96-well plate): dramatically reduces firing rate; neuronal excitability [4]: clear reduction in neuronal excitability; drug fingerprint similarity to query compound ICA-27243 (neurons [5]): highly similar drug fingerprints
CCOC(=O)Nc1ccc(NCc2ccc(F)cc2)cc1N [Retigabine] | – | – | – | wells in which activity was detected (neurons [6]): 99.8%
O=C1c2ccccc2C(Cc2ccncc2)(Cc2ccncc2)c2ccccc21 [XE-991] | – | – | drove cellular response, as expected | –
Nc1nnc(-c2cccc(Cl)c2Cl)c(N)n1 [lamotrigine] | moves behavior away from both WT and KO | perturbed behavior but did not reverse the phenotype | – | –
